Target: T1, Central CCK-B Receptors (Mus musculus, UniProt P56481)
T1 construct: from tissue; host or cells: cerebral cortex membranes of male CFLP mice (30 to 40 g)
T1 sequence (P56481 1-453): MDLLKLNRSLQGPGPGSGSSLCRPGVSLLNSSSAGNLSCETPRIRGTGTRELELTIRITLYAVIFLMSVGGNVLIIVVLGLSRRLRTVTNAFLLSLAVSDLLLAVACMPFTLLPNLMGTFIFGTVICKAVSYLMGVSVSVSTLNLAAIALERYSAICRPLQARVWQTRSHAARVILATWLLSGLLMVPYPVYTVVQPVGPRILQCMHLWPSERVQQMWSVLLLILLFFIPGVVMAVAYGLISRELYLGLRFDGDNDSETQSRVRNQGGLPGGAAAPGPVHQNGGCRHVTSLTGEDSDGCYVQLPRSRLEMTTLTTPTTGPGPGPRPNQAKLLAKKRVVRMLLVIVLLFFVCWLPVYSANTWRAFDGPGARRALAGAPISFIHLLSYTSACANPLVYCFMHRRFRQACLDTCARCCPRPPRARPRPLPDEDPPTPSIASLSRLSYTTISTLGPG
Assay: Binding to central CCK-B receptors: displacement of tritiated-pentagastrin from cerebral cortical membranes
Parameters: species or system mouse (male CFLP mice)
Conditions: tritiated-pentagastrin 2 nM, 23° C., pH 7.2
Procedure: The biological activity of compounds of the present invention was evaluated employing an initial screening test which rapidly and accurately measured the binding of the tested compound to known CCK receptor sites. […] (See Hays, et al, Neuropeptides 1:53-62, 1980; and Satuer et al, Science 208:1155-1156, 1980.)
In this screening test, the cerebral cortices taken from male CFLP mice weighing between 30 to 40 g were dissected on ice, weighed, and homogenized in 10 volumes of 50 mM Tris-HCl buffer (pH 7.4 at 0°-4° C.). The resulting suspension was centrifuged, the supernate was discarded, and the pellet was washed by resuspension in Tris-HCl buffer followed by recentrifugation. The final pellet was resuspended in 20 volumes of […] buffer (pH 7.2 at 23° C.) containing 130 mM NaCl, […], […], […], 5 mg/mL bovine albumin, and bacitracin (0.25 mg/mL).
In saturation studies, cerebral cortical membranes were incubated at 23° C. for 120 minutes in a final volume of 500 μL of Hepes incubation buffer (pH 7.2) together with 0.2-20 nM tritiated-pentagastrin (Amersham International, England).
In the displacement experiments, membranes were incubated with a single concentration (2 nM) of ligand, together with increasing concentrations ([…] to 10^-4 M) of competitive test compound. In each case, the nonspecific binding was defined as that persisting in the presence of the unlabeled octapeptide CCK26-33 (10^-6 M).
Following incubation, radioactivity bound to membranes was separated from that free in solution by rapid filtration through Whatman GF/B filters and washed three times with 4 mL of ice cold Tris-HCl buffer. Filters from samples incubated with tritiated pentagastrin were placed in polyethylene vials with 4 mL of scintillation cocktail, and the radioactivity was estimated by liquid scintillation spectrometry (efficiency 47% to 52%).
The specific binding to CCK receptor sites was defined as the total bound tritiated-pentagastrin minus the amount of tritiated-pentagastrin bound in the presence of 10^-6 octapeptide, CCK26-33.
Saturation curves for specific tritiated-pentagastrin binding to mouse cortical membranes were analyzed by the methods of Scatchard (Ann. New York Acad. Sci. 51:660-672, 1949), and Hill (J. Physiol. 40:IV-VIII, 1910), to provide estimates for the maximum number of binding sites (Bmax) and the equilibrium dissociation constant (Ka).
In displacement experiments, inhibition curves were analyzed by either logit-log plots or the iterative curve fitting computer program ALLFIT (DeLean, Munson, and Redbard, 1978) to provide estimates of the IC50 and nH (apparent Hill coefficient values). (IC50 values were defined as the concentration of test compound required to produce 50% inhibition of specific binding.)
The inhibition constant (Ki) of the test compound was then calculated according to the Cheng Prusoff equation: [formula] where [L]is the concentration of radiolabel and Ka is the equilibrium dissociation constant.
^a Binding affinity protocol Horwell, et al, J. Med. Chem. 34:404,

In order of falling Ki:
1. O=C(N/C(=C\c1c[nH]c2ccccc12)C(=O)NCCc1ccccc1)OC1C2CC3CC(C2)CC1C3 (stereo not shown) [Example 1, Carbamic acid, [1-(1H-indol-3-ylmethylene)-2-oxo-2-[(2-phenylethyl)amino]ethyl]-, tricyclo[3.3.1.1^3,7]dec-2-yl ester, (Z)-]  1520 nM
2. COC(=O)CC(=O)Nc1ccccc1CCNC(=O)/C(=C/c1c[nH]c2ccccc12)NC(=O)OC1C2CC3CC(C2)CC1C3 (stereo not shown) [4, step 2]  616 nM
3. O=C(N/C(=C\c1c[nH]c2ccccc12)C(=O)NCCc1ccccn1)OC1C2CC3CC(C2)CC1C3 (stereo not shown) [Example 3, Tricyclo[3.3.1.1^3,7]dec-2-yl (Z)-[1-(1H-indol-3-ylmethylene) -2-oxo-2-[[2-(2-pyridinyl)ethyl]amino]ethyl]carbamate]  507 nM
4. O=C(O)CC(=O)Nc1ccccc1CCNC(=O)/C(=C/c1c[nH]c2ccccc12)NC(=O)OC1C2CC3CC(C2)CC1C3 (stereo not shown) [Example 4, (Z)-3-[[2-[2-[[3-(1H-indol-3-yl)-1-oxo-2-[[(tricyclo[3.3.1.1^3,7]dec-2-yloxy)carbonyl]amino]-2-propenyl]amino]ethyl]phenyl]amino]-3-oxopropanoic acid]  209 nM
5. O=C(O)C[C@H](Cc1ccccc1)NC(=O)/C(=C/c1c[nH]c2ccccc12)NC(=O)OC1C2CC3CC(C2)CC1C3 (stereo partly drawn) [Example 2, (Z)-N-[α,β-Didehydro-N-[(tricyclo[3.3.1.1^3,7]dec-2-yloxy)carbonyl]tryptophyl]-L -3-(phenylmethyl)-β-alanine]  13 nM
6. O=C(O)C[C@H](Cc1ccccc1)NC(=O)C(=Cc1c[nH]c2ccccc12)NC(=O)OC1C2CC3CC(C2)CC1C3 (mixture of isomers) [Example 5, (E/Z)-N-[α,β-Didehydro-N-[(tricyclo[3.3.1.1^3,7]dec-2-yloxy)carbonyl]tryptophyl]-L-3-(phenylmethyl)-β-alanine]  0.3 nM

Test system: hyperactivity caused by the injection of amphetamine into the nucleus accumbens of the rat
Assay: Reduction of hyperactivity caused by intra-accumbens amphetamine (locomotor activity, antipsychotic test)
Type: in vivo, rat (male Sprague Dawley (CD) Bradford strain)
Conditions: bilateral injection of amphetamine (20 μg) into the nucleus accumbens, 20 to 40 minutes after injection
Procedure: The compounds of the instant invention are useful as antipsychotic agents. The compounds are tested for their ability to reduce the effects of intra-accumbens amphetamine in the rat as described hereinafter.
Male Sprague Dawley (CD) Bradford strain rats are used. The rats are housed in groups of five at a temperature of 21°±2° C. on a 12-hour light-dark cycle of lights-on between 07 hours 00 minutes and 20 hours 00 minutes. Rats are fed CRM diet (Labsure) and allowed water ad libitum.
Rats are anesthetized with chloral hydrate (400 mg/kg^-1 SC) and placed in a Kopf stereotaxic frame. Chronically indwelling guide cannulae (constructed of stainless steel tubing 0.65 mm diameter held bilaterally on Parspex holders) are implanted using standard stereotaxic techniques to terminate 3.5 mm above the center of the nucleus accumbens (Ant. 9.4, Vert. 0.0, Lat. 1.6) or 5.0 mm above the central nucleus of the amygdala (Ant. 5.8, Vert. -1.8, lat. ±4.5) (atlas of De Groot, 1959). The guides are kept patent during a 14 day recovery period using stainless steel stylets, 0.3 mm diameter, which extend 0.5 mm beyond the guide tips.
Rats are manually restrained and the stylets removed. […]
The abilities of the compounds (20) and (20A) to inhibit the hyperactivity caused by the injection of amphetamine into the nucleus accumbens of the rat is measured. […]

Work on `CC(N)Cc1ccccc1` (stereo not shown) [amphetamine] yielded a peak hyperactivity of 50 to 60 counts 5 minutes^-1.

From patent US5218123A, “Didehydrotryptophan derivatives and pharmaceutical use thereof” (Warner-Lambert Company, priority 1992, dated 1993)
